Active and inactive are the calls of the source.
Legend:
[1] = inhibitors of firefly luciferase expression or activity, dose response, H4 neuroglioma cells, luminescence (AID 1990); format: functional, cell-based
BJ [2] = assay: cytotoxicity toward BJ-TERT fibroblasts, dose response, cell-based, RAS-independent, luminescence (AID 1933); format: functional; conditions: Homo sapiens
[3] = Luminescence Cell-Based Dose Response HTS to Identify Inhibitors of 5'UTR Stem-Loop Driven Prion Protein mRNA Translation in H4 Neuroglioblastoma Cells. [Related pubchem assays: 1827 (Project Summary), 1813 (Primary HTS)]; format: functional
[4] = biological target: T1, Heat shock factor protein 1 (Mus musculus, UniProt P38532); assay: inhibition of MG132-induced HSE-luciferase signal, confirmation, cell-based, NIH3T3, luminescence, dose retest (AID 2382); format: functional;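 further: NIH3T3 fibroblasts with HSF1-driven luciferase reporter stressed by proteasome inhibitor MG132; luminescence from HSF1-driven luciferase expression after 8 hours of MG132 stress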
T1 sequence (P38532 whole entry): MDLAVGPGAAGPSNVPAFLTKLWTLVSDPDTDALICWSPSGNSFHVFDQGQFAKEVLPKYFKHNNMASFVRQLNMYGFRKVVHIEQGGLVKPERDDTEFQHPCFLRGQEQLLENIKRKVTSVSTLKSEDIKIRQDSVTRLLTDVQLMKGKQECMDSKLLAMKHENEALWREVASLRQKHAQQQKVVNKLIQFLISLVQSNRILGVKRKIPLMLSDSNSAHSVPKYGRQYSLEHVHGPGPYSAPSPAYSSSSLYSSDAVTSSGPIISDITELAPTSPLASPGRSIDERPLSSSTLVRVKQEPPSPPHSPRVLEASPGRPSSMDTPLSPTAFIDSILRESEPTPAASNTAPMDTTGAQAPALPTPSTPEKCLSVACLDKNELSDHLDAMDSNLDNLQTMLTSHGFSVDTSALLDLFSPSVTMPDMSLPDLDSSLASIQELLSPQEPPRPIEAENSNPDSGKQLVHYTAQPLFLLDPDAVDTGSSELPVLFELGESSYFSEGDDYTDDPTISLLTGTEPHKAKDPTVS

[5] = inhibitors of SNCA 5'UTR-driven reporter translation, confirmation, H4 neuroglioma cells, luminescence (AID 1988); format: functional, cell-based
BJ [6] = assay: cells; format: functional, cell-based; conditions: Homo sapiens
[7] = cytotoxicity in HPDE-C7 cells, cell-based, fluorescence, HTS (AID 430); format: functional; conditions: Homo sapiens
[8] = cytotoxicity in KRAS-transformed pancreatic duct cells, primary screen, cell-based, fluorescence, HTS (AID 431); format: functional; conditions: Homo sapiens;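 further: cell line used: HPDE-C7K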
[9] = growth suppression of PTEN-null colon cells, dose response, cell-based, HCT116 PTEN knockout (AID 1047); format: functional;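 further: HCT116 colon tumor cells with PTEN knocked out; cells exposed to compound for 60 hours before readout; potency for loss of cell viability measured by luminescence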
[10] = growth suppression of beta-catenin-knockout colon cells, dose response, cell-based, HCT116, human colon tumor (AID 1045); format: functional;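 further: HCT116 colon tumor cells with beta catenin knocked out; cells exposed to compound for 60 hours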
BJ [11] = assay: cytotoxicity toward BJ-TERT-LT-ST fibroblasts, dose response, cell-based, RAS-independent, luminescence (AID 1935); format: functional; conditions: Homo sapiens;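 further: BJ fibroblasts immortalized with TERT plus LT and ST oncogenes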
[12] = cytotoxicity toward DRD oncogenic fibroblasts, dose response, cell-based, non-viral oncogenic, luminescence (AID 1934); format: functional; conditions: Homo sapiens
[13] = biological target: Voltage-dependent T-type calcium channel subunit alpha-1H (Homo sapiens, UniProt O95180); format: functional;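 further: channel activity triggered by adding a high calcium stimulation buffer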
Chain of Voltage-dependent T-type calcium channel subunit alpha-1H (O95180 whole entry): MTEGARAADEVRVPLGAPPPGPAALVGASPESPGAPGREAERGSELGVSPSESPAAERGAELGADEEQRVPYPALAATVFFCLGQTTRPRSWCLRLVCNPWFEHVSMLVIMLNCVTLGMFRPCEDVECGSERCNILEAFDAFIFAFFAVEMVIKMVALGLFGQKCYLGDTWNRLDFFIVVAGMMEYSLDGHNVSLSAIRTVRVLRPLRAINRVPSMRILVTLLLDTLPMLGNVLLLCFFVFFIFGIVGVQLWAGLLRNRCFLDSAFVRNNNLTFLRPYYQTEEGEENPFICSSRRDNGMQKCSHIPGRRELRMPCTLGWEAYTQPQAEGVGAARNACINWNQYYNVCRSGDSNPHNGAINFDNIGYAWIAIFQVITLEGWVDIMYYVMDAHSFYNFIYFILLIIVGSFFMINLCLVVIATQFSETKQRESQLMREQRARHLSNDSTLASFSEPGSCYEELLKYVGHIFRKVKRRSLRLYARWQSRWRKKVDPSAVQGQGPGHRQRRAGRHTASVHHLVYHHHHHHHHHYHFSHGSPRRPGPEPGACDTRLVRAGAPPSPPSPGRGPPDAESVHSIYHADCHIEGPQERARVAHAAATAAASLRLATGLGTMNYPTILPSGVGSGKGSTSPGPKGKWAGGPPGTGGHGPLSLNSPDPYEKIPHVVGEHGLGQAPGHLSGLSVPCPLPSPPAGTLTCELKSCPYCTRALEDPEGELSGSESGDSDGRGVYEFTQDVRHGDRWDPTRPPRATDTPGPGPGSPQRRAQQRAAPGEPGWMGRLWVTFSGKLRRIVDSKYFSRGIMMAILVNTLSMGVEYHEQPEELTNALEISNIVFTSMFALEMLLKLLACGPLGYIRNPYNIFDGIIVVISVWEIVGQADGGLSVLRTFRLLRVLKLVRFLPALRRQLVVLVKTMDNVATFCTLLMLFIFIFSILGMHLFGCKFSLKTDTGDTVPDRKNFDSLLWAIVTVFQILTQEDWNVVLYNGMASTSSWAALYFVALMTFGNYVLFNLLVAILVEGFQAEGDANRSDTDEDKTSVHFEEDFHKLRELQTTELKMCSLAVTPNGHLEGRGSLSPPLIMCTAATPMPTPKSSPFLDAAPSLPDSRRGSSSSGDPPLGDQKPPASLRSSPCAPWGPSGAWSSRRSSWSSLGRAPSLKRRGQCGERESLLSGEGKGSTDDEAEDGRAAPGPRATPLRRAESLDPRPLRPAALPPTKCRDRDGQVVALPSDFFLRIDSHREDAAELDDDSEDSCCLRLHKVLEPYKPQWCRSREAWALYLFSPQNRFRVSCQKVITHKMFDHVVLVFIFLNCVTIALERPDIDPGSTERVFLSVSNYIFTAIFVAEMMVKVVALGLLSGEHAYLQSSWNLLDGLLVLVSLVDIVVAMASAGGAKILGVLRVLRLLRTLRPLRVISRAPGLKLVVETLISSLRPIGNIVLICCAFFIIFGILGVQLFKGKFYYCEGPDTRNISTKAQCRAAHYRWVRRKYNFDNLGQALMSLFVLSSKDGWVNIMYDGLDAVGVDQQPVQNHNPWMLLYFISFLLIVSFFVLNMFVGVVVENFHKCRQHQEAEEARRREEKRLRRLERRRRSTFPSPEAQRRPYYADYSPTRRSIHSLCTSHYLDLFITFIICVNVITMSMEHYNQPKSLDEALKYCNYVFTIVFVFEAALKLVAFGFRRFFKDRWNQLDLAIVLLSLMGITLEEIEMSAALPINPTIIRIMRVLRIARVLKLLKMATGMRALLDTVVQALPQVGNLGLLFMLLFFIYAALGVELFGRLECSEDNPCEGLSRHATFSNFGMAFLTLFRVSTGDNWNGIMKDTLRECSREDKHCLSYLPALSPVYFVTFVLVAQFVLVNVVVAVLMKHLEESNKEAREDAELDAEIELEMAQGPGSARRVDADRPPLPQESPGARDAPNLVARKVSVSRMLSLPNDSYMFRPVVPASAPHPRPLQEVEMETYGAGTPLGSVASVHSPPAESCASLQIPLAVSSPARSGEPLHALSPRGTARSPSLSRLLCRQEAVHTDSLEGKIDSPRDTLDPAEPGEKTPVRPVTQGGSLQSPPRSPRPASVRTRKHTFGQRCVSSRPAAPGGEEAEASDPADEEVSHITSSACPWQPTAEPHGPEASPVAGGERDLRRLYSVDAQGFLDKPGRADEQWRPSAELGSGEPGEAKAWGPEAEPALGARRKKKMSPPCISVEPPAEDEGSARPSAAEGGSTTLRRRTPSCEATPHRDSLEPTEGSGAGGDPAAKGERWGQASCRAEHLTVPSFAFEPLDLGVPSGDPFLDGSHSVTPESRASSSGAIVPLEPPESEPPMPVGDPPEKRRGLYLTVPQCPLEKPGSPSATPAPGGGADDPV

HEK293 = assay: inhibitors of LMP1-driven NF-kB reporter, dose response, cell-based, HEK293, luciferase, cherry-pick (AID 588343); format: functional; conditions: Homo sapiens
BJ [14] = assay: cytotoxicity toward Ras-transformed BJeLR fibroblasts, dose response, cell-based, alamar blue fluorescence, cherrypicked samples (AID 2631); format: functional; conditions: Homo sapiens;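 further: confirmatory dose-response assay in RAS-dependent BJ fibroblasts engineered with TERT, LT and ST, with cytotoxicity read by fluorescence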
[15] = inhibitors of HIV Env-driven cell fusion, dose response, cherry-pick (AID 652057); format: functional, cell-based
[16] = CEM21 lymphoblast cell cytotoxicity, dose response, cytotoxicity control for viral fusion inhibitor project, CellTiter-Glo luminescence, cherry-picked (AID 652042); format: functional, cell-based;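 further: potency for signal decrease meaning cytotoxicity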
[17] = ZM109 Env clade C HIV-1 fusion inhibitors, dose response, HeLa effector, CEM target cells, luciferase, cherry-pick (AID 652058); format: functional, cell-based
Paired box protein Pax-8 = Paired box protein Pax-8 (Homo sapiens, UniProt Q06710); assay: inhibitors of PAX8-driven TPO luciferase reporter, dose response, RMG-I cells, cherry-pick (AID 687027); format: functional, cell-based;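 further: luciferase reporter driven by Pax8 target thyroperoxidase promoter measured by SteadyGlo luminescence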
Chain of Paired box protein Pax-8 (Q06710 whole entry, the tested form may be a part): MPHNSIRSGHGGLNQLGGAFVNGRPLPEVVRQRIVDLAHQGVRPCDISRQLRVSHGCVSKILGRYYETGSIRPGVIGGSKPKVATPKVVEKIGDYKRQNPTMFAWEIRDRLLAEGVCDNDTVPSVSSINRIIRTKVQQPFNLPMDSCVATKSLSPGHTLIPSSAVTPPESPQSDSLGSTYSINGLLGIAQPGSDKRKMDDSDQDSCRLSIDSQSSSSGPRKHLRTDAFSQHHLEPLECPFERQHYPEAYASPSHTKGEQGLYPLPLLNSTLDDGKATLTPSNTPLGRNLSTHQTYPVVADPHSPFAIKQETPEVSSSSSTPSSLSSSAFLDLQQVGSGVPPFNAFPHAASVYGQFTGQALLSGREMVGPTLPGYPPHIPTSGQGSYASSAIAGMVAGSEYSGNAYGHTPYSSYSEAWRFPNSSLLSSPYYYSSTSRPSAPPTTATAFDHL

[18] = off-target signal loss in HeLa-CEM21 co-culture – HeLa F-luc CTL cells, cherry-picked, counter-screen for HIV-1 Env fusion inhibitor project, dose response (AID 652040); format: functional, cell-based;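 further: potency for signal decrease marking cytotoxic or nonspecific inhibition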
[19] = inhibitors of clade B AD8 Env fusion, dose response, cell-based, cherry-pick (AID 652062); format: functional;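 further: luciferase signal from cell-cell fusion driven by HIV-1 clade B AD8 Env; potency is for inhibitors of fusion seen as a drop in luminescence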
[20] = non-specific cell cytotoxicity, dose response, cytotoxicity control for PAX8 inhibitor project, plate reader, dry powder samples (AID 743021); format: functional, cell-based
[21] = A549 cell cytotoxicity, dose response, cytotoxicity control, plate reader, cherry-pick, antagonist series (AID 743412); format: functional, cell-based
[22] = HepG2 cell cytotoxicity, dose response, cytotoxicity control, plate reader, cherry-pick, antagonist series (AID 743416); format: functional, cell-based
[23] = LGR2 antagonists, dose response, cell-based, HEK293, CRE-luciferase reporter, cherry pick, set 2 (AID 743343); format: functional;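 further: transfected cells were stimulated with diluted bursicon conditioned medium after compound addition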
[24] = MC4R antagonists, dose response, counter-screen for LGR2 antagonist project, cell-based, plate reader, cherry pick (AID 743444); format: functional;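 further: transfected HEK 293 cells stimulated with alpha-MSH peptide; potency of inhibitors of the alpha-MSH evoked signal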
[25] = HEK293 cell cytotoxicity, dose response, cytotoxicity control, plate reader, cherry-picked samples (AID 743446); format: functional, cell-based
cells = conditions: HEK293
[26] = A2780 ovarian cancer cell cytotoxicity, dose response, cytotoxicity control, plate reader, dry powder samples (AID 743046); format: functional, cell-based
[27] = NIH:OVCAR-3 ovarian cancer cell cytotoxicity, dose response, PAX8 inhibitor project, plate reader, dry powder samples (AID 743044); format: functional, cell-based
[28] = IOSE-T80 ovarian epithelial cell cytotoxicity, dose response, cytotoxicity control for PAX8 inhibitor project, plate reader, dry powder samples (AID 743045); format: functional, cell-based
[29] = IGROV1 ovarian cancer cell cytotoxicity, dose response, PAX8 inhibitor project, plate reader, dry powder samples (AID 743043); format: functional, cell-based; conditions: IGROV-1
[30] = cytotoxicity in OVCAR8 ovarian cancer cells, dose response, PAX8 project, cell-based, plate reader, dry powder samples (AID 743197); format: functional; conditions: OVCAR-8
[31] = HIV Env cell-cell fusion inhibitors, dose response, HIV entry, plate reader, dry powder (AID 687023); format: functional, cell-based
[32] = CEM21 cell cytotoxicity, dose response, cytotoxicity control, plate reader, dry powder (AID 687026); format: functional, cell-based

O=S(=O)(c1ccc2c(c1)C(=NO)c1cc(S(=O)(=O)N3CCCCC3)ccc1-2)N1CCCCC1
inconclusive: EC50 (BJ [2]) 1.02 µM | EC50 (BJ [6]) 2.71 µM | EC50 (BJ [11]) 2.65 µM | EC50 [12] 2.68 µM
active: EC50 [1] 6.01 µM | EC50 [3] 7.79 µM | EC50 [4] 0.749 µM | EC50 [5] 3.8 µM | EC50 [7] 0.3 µM | EC50 [8] 0.39 µM | EC50 [9] 0.412 µM | EC50 [10] 0.352 µM | EC50 [13] 12.3 µM | AC50 (HEK293) 2.99 µM | EC50 (BJ [14]) 2.97 µM | AC50 [15] 0.73 µM | AC50 [16] 0.287 µM | AC50 [17] 0.794 µM | AC50 (Paired box protein Pax-8) 0.871 µM | AC50 [18] 0.767 µM | AC50 [19] 0.879 µM | AC50 [20] 1.5 µM

CCCCOc1ccc(-c2cnc3ccccc3n2)cc1
inactive: AC50 [21] > 52 µM | AC50 [22] > 52 µM | AC50 [25] > 52 µM
active: AC50 [23] 4.56 µM | AC50 [24] 6.65 µM

COc1cccc(Nc2nc(C(N)Cc3ccc(F)cc3)cs2)n1 (centres undefined)
active: AC50 [21] 14.5 µM | AC50 [22] 13.9 µM | AC50 [23] 28.5 µM | AC50 [24] 31.1 µM | AC50 [25] 16.8 µM

CCN1C(=O)c2cccc3c(S(=O)(=O)N(C)C)ccc1c23
inactive: AC50 (cells) > 52 µM

CS(=O)(=O)N1CC(=O)N2[C@H](CO)[C@H](c3ccc(C#CCC4CCCC4)cc3)[C@H]2C1
active: AC50 (Paired box protein Pax-8) 5.98 µM | AC50 [26] 33.1 µM | AC50 [27] 23 µM

O=C(C[C@@H]1CC[C@@H]2[C@H](COC[C@H](O)CN2S(=O)(=O)c2ccccc2Cl)O1)N1CCC(Cc2ccccc2)CC1
active: AC50 (Paired box protein Pax-8) 13.3 µM | AC50 [28] 31.5 µM | AC50 [29] 37.6 µM | AC50 [30] 44.9 µM

C[C@H]1CN([C@@H](C)CO)C(=O)c2ccccc2-c2ccccc2CO[C@H]1CN(C)S(=O)(=O)c1ccccc1C#N
inactive: AC50 [32] > 70 µM
active: AC50 [15] 0.838 µM | AC50 [17] 3.49 µM | AC50 [31] 47 µM

— ChEMBL document CHEMBL1201862, “PubChem BioAssay data set” (2004)
